According to US4148786A, “Analgesic polypeptide” (American Home Products Corporation, priority 1978, dated 1979):
Values joined by “and” are separate entries in the source; they are usually repeats but may differ in a detail not shown here. Equal values may be shown once. Read-outs that look alike come from different tables or passages of the source. Where a SMILES comes first, the peptide text is derived from it. Bridges are numbered along the chain shown (N, C = ends). [ ]: non-standard residue; d: D form.

Tests used:
male rats [1] = assay: rat-tail flick test of D'Amour and Smith; format: in vivo; conditions: for Positive Responses / Total Possible Responses: all time periods
Experimental: The holders were situated so that a high intensity light beam would shine on the tip of the rats tail. The light beam intensity was adjusted so that normal rats respond by removing their tails from the light stimulus within from 3 to 8 seconds. The average of three time readings for removal of a rats tail from the light beam, taken 20 minutes apart serves as a pre-drug control. The rats were selected for use based upon control readings that agreed within one second. The compounds of this invention were then administered intravenously and the test performed at 15, 30 and 60 minutes to determine the animals reaction time which was compared with the control average and tested for significance. The number of rats showing analgesia at each time period out of the total group for each dose administered is noted as a ratio and the number of positive responses observed is relative to the total number of challenges for each group of rats.

male rats [2] = assay: rat-tail flick test of D'Amour and Smith; format: in vivo
rats [3] = conditions: cited from earlier work; for analgesia: injection in the brain ventricle in rats
opiate receptor = opiate receptor binding affinity (method of Chang et al.); conditions: two assays
Experimental: The opiate receptor binding affinity of the compound of Example 2 was determined following the method of Chang et al., Life Sciences, 18, 1473-82(1976).

rats [4] = conditions: peripheral (i.v.); cited from earlier work
[5] = central administration; cited from earlier work
mice = conditions: central administration; cited from earlier work
[6] = administered peripherally; cited from earlier work

Molecule | No. Analgesic / Total No. Tested (male rats [1]; 1 mg/kg iv, 15 minutes) | No. Analgesic / Total No. Tested (male rats [1]; 1 mg/kg iv, 30 minutes) | No. Analgesic / Total No. Tested (male rats [1]; 1 mg/kg iv, 60 minutes) | Comments: respiratory depression (male rats [1]; 5 mg/kg iv) | No. Analgesic / Total No. Tested (male rats [1]; 5 mg/kg iv, 15 minutes) | No. Analgesic / Total No. Tested (male rats [1]; 5 mg/kg iv, 60 minutes) | Positive Responses / Total Possible Responses (male rats [1]; 5 mg/kg iv) | Positive Responses / Total Possible Responses (male rats [2]; 1 mg/kg iv, all time periods) | No. Analgesic / Total No. Tested (male rats [2]; 5 mg/kg iv, 30 minutes) | other results
N=C(N)NCCC[C@H](N)C(=O)N[C@@H](Cc1ccc(O)cc1)C(=O)N[C@@H]1CSSC[C@H](C(N)=O)NC(=O)[C@H](Cc2ccccc2)NC(=O)CNC1=O [Example 5, L-Arginyl-L-tyrosyl-D-cysteinyl-glycyl-L-phenylalanyl-D-cysteinylamide cyclic (3-6) disulfide] (H-RY[dC]GF[dC]-NH2; disulfide 3-6) | 4/6 | 3/6 | 2/6 | 3/5 respiratory depression | 6/6 | 5/5 | 16/16 | 9/18 | 5/5 | No. Analgesic / Total No. Tested (male rats [1]; 0.5 mg/kg iv, 60 minutes): 0/6; No. Analgesic / Total No. Tested (male rats [2]; 0.5 mg/kg iv, 15 minutes): 2/6; No. Analgesic / Total No. Tested (male rats [2]; 0.5 mg/kg iv, 30 minutes): 2/6; Positive Responses / Total Possible Responses (male rats [2]; 0.5 mg/kg iv, all time periods): 4/18; Comments: dead (male rats [2]; 5 mg/kg iv): 1
H-Tyr-Gly-Gly-Phe-Leu-OH [leucine-enkephalin] |  |  |  |  |  |  |  |  |  | analgesia (rats [3]): induce a profound analgesia
NC(=O)[C@@H]1CSSC[C@@H](NC(=O)[C@@H](N)Cc2ccc(O)cc2)C(=O)NCC(=O)N[C@@H](Cc2ccccc2)C(=O)N1 [Example 3, L-Tyrosyl-D-Cysteinyl-glycyl-L-phenylalanyl-L-cysteinyl amide cyclic (2-5) disulfide] | 4/6 | 2/6 | 1/6 | 3/6 moderate to severe respiratory | 6/6 | 4/6 | 15/18 | 7/18 | 5/6 | 
NC(=O)[C@H]1CSSC[C@@H](NC(=O)[C@@H](N)Cc2ccc(O)cc2)C(=O)NCC(=O)N[C@@H](Cc2ccccc2)C(=O)N1 [Example 2, L-Tyrosyl-D-cysteinyl-glycyl-L-phenylalanyl-D-cysteinyl amide cyclic (2-5) disulfide] | 4/5 and 4/6 | 4/4 and 5/6 | 2/3 and 3/6 | 4/4 Respiration very depressed | 5/5 | 4/4 | 14/14 | 10/12 and 12/18 | 5/5 | No. Analgesic / Total No. Tested (male rats [1]; 0.5 mg/kg iv, 60 minutes): 1/6 and 2/6; No. Analgesic / Total No. Tested (male rats [2]; 0.1 mg/kg iv, 15 minutes): 2/6; No. Analgesic / Total No. Tested (male rats [2]; 0.1 mg/kg iv, 30 minutes): 0/6; No. Analgesic / Total No. Tested (male rats [2]; 0.1 mg/kg iv, 60 minutes): 0/6; Positive Responses / Total Possible Responses (male rats [2]; 0.1 mg/kg iv, all time periods): 2/18; Comments: respiratory depression (male rats [2]; 0.5 mg/kg iv): 1/6 slight respiratory depression; No. Analgesic / Total No. Tested (male rats [2]; 0.5 mg/kg iv, 15 minutes): 3/6 and 4/6; No. Analgesic / Total No. Tested (male rats [2]; 0.5 mg/kg iv, 30 minutes): 2/6 and 3/6; Positive Responses / Total Possible Responses (male rats [2]; 0.5 mg/kg iv, all time periods): 6/10 and 9/18; Comments: dead (male rats [2]; 1 mg/kg iv): 3/6; Comments: respiratory depression (male rats [2]; 1 mg/kg iv): 2/3 severe respiratory depression and Slight depression; Comments: dead (male rats [2]; 5 mg/kg iv): 2/6; Positive Responses / Total Possible Responses (male rats [2]; 5 mg/kg s.c.): 7/24; No. Analgesic / Total No. Tested (male rats [2]; 5 mg/kg s.c., 15 minutes): 4/6; displacement potency relative to morphine (opiate receptor): 100 times that of morphine and 109 times that of morphine
H-Tyr-D-Ala-Gly-Phe-D-Met-NH2 |  |  |  |  |  |  |  |  |  | analgesic activity (rats [3]; centrally administered, rats): produced analgesic activity
H-Y[dM]GFP-NH2 |  |  |  |  |  |  |  |  |  | analgesic activity (rats [4]): peripheral (i.v.) analgesic activity
H-Tyr-Gly-Gly-Phe-Met-OH [methionine-enkephalin] |  |  |  |  |  |  |  |  |  | analgesia (rats [3]): induce a profound analgesia
H-Tyr-D-Ala-Gly-Phe-Met-NH2 |  |  |  |  |  |  |  |  |  | analgesia [5]: long lasting analgesic
CN1C(=O)CNC(=O)[C@H](NC(=O)[C@@H](N)Cc2ccc(O)cc2)CSSC[C@H](C(N)=O)NC(=O)[C@@H]1Cc1ccccc1 [Example 4, L-Tyrosyl-D-cysteinyl-glycyl-N-methyl-L-phenylalanyl-D-cysteinylamide cyclic (2-5) disulfide] |  |  |  | 3/6 respiratory depression | 5/6 | 3/6 | 12/18 |  | 4/6 | 
H-Tyr-D-Ala-Gly-Phe-D-Leu-OH |  |  |  |  |  |  |  |  |  | antinociceptive and behavioral effects (mice): exhibit antinociceptive and behavioral effects; antinociceptive and behavioral effects (rats [3]; central administration, rats): exhibit antinociceptive and behavioral effects; analgesic activity on peripheral administration [6]: exhibit peripheral analgesic activity
CN[C@@H](Cc1ccc(O)cc1)C(=O)N[C@@H]1CSSC[C@H](C(N)=O)NC(=O)[C@H](Cc2ccccc2)NC(=O)CNC1=O [Example 6, N-Methyl-L-tyrosyl-D-cysteinyl-glycyl-L-phenylalanyl-D-cysteinylamide cyclic (2-5) disulfide] | 6/6 | 5/6 | 3/6 | 3/3 respiratory depression | 6/6 | 3/3 | 13/13 | 14/18 | 4/4 | Comments: dead (male rats [2]; 5 mg/kg iv): 3
